Test results published in PubChem BioAssay (NCI).
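Values below derive from 48-hour exposures of cells grown in 96-well plates, with endpoints linearly interpolated between the two concentrations bracketing the appropriate inhibition level. The concentration for full growth arrest is given as TGI.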

Key:
Assay in all cases: inhibition of tumour cell growth, NCI panel, 48 h
786-0 renal = system: 786-0 renal
A498 renal = system: A498 renal
A549 NSCLC = system: A549 NSCLC
ACHN renal = system: ACHN renal
CAKI-1 renal = system: CAKI-1 renal
CCRF-CEM leukemia = system: CCRF-CEM leukemia
COLO 205 colon = system: COLO 205 colon
DU-145 prostate = system: DU-145 prostate
EKVX NSCLC = system: EKVX NSCLC
HCC-2998 colon = system: HCC-2998 colon
HCT-116 colon = system: HCT-116 colon
HCT-15 colon = system: HCT-15 colon
HL-60(TB) leukemia = system: HL-60(TB) leukemia
HOP-62 NSCLC = system: HOP-62 NSCLC
HOP-92 NSCLC = system: HOP-92 NSCLC
HS 578T breast = system: HS 578T breast
HT29 colon = system: HT29 colon
IGROV1 ovarian = system: IGROV1 ovarian
K-562 leukemia = system: K-562 leukemia
KM12 colon = system: KM12 colon
LOX IMVI melanoma = system: LOX IMVI melanoma
M14 melanoma = system: M14 melanoma
MALME-3M melanoma = system: MALME-3M melanoma
MCF7 breast = system: MCF7 breast
MDA-MB-231 breast = system: MDA-MB-231 breast
MDA-MB-435 = system: MDA-MB-435
MDA-N = system: MDA-N
MOLT-4 leukemia = system: MOLT-4 leukemia
NCI-H226 lung = system: NCI-H226 lung
NCI-H23 lung = system: NCI-H23 lung
NCI-H460 lung = system: NCI-H460 lung
NCI-H522 lung = system: NCI-H522 lung
NCI/ADR-RES ovarian = system: NCI/ADR-RES ovarian
OVCAR-3 ovarian = system: OVCAR-3 ovarian
OVCAR-4 ovarian = system: OVCAR-4 ovarian
OVCAR-5 ovarian = system: OVCAR-5 ovarian
OVCAR-8 ovarian = system: OVCAR-8 ovarian
PC-3 prostate = system: PC-3 prostate
RPMI-8226 leukemia = system: RPMI-8226 leukemia
RXF 393 renal = system: RXF 393 renal
SF-268 CNS = system: SF-268 CNS
SF-295 CNS = system: SF-295 CNS
SF-539 CNS = system: SF-539 CNS
SK-MEL-2 melanoma = system: SK-MEL-2 melanoma
SK-MEL-28 melanoma = system: SK-MEL-28 melanoma
SK-MEL-5 melanoma = system: SK-MEL-5 melanoma
SK-OV-3 ovarian = system: SK-OV-3 ovarian
SN12C renal = system: SN12C renal
SNB-19 CNS = system: SNB-19 CNS
SNB-75 CNS = system: SNB-75 CNS
SR leukemia = system: SR leukemia
SW-620 colon = system: SW-620 colon
T-47D breast = system: T-47D breast
TK-10 renal = system: TK-10 renal
U251 CNS = system: U251 CNS
UACC-257 melanoma = system: UACC-257 melanoma
UO-31 renal = system: UO-31 renal
BT-549 breast = system: BT-549 breast
UACC-62 melanoma = system: UACC-62 melanoma

Measured: TGI

CCOC(=O)Cc1csc(NC(NC(=O)OCC)(C(=O)OCC)C(F)(F)F)n1 (stereo not given)
> 100 µM: 786-0 renal | A498 renal | A549 NSCLC | ACHN renal | CAKI-1 renal | CCRF-CEM leukemia | COLO 205 colon | DU-145 prostate | EKVX NSCLC | HCC-2998 colon | HCT-116 colon | HCT-15 colon | HL-60(TB) leukemia | HOP-62 NSCLC | HOP-92 NSCLC | HS 578T breast | HT29 colon | IGROV1 ovarian | K-562 leukemia | KM12 colon | LOX IMVI melanoma | M14 melanoma | MALME-3M melanoma | MCF7 breast | MDA-MB-231 breast | MDA-MB-435 | MDA-N | MOLT-4 leukemia | NCI-H226 lung | NCI-H23 lung | NCI-H460 lung | NCI-H522 lung | NCI/ADR-RES ovarian | OVCAR-3 ovarian | OVCAR-4 ovarian | OVCAR-5 ovarian | OVCAR-8 ovarian | PC-3 prostate | RPMI-8226 leukemia | RXF 393 renal | SF-268 CNS | SF-295 CNS | SF-539 CNS | SK-MEL-2 melanoma | SK-MEL-28 melanoma | SK-MEL-5 melanoma | SK-OV-3 ovarian | SN12C renal | SNB-19 CNS | SNB-75 CNS | SR leukemia | SW-620 colon | T-47D breast | TK-10 renal | U251 CNS | UACC-257 melanoma | UO-31 renal

O=C1/C(=C/c2cccc(Cl)c2)CCCc2ccccc21
35.9 µM: EKVX NSCLC | NCI/ADR-RES ovarian
34.9 µM: TK-10 renal
31.5 µM: SNB-19 CNS
35.2 µM: SR leukemia
42.5 µM: RPMI-8226 leukemia
31.2 µM: NCI-H460 lung | OVCAR-5 ovarian | SK-MEL-2 melanoma
44.5 µM: BT-549 breast
32.1 µM: NCI-H522 lung | SF-539 CNS
29.4 µM: U251 CNS
30.4 µM: CCRF-CEM leukemia
33.4 µM: SF-268 CNS
32.3 µM: KM12 colon | SN12C renal
33.7 µM: 786-0 renal
55.8 µM: OVCAR-3 ovarian
30.9 µM: HT29 colon
40.2 µM: DU-145 prostate
30.7 µM: HL-60(TB) leukemia | NCI-H226 lung
32.5 µM: HCC-2998 colon
38.2 µM: MDA-MB-231 breast
27.4 µM: MCF7 breast
33.8 µM: MALME-3M melanoma
33.9 µM: SW-620 colon
30.1 µM: UO-31 renal
32.8 µM: LOX IMVI melanoma
31.4 µM: OVCAR-4 ovarian
49 µM: HOP-62 NSCLC
46.5 µM: UACC-257 melanoma
36 µM: NCI-H23 lung
39.2 µM: HCT-15 colon
31.9 µM: MDA-N
38.3 µM: PC-3 prostate
26.1 µM: HCT-116 colon
> 100 µM: A549 NSCLC | SK-OV-3 ovarian | SNB-75 CNS
38.5 µM: COLO 205 colon
34 µM: K-562 leukemia
31.8 µM: IGROV1 ovarian
60.4 µM: HOP-92 NSCLC
33.6 µM: OVCAR-8 ovarian | SK-MEL-28 melanoma
29.6 µM: ACHN renal
94.5 µM: CAKI-1 renal
53.7 µM: MOLT-4 leukemia
29.9 µM: M14 melanoma
31.6 µM: MDA-MB-435 | SF-295 CNS
32.9 µM: HS 578T breast
27 µM: UACC-62 melanoma

CN(C)C(C1=C(O)C(c2ccccc2)N(c2ccccc2)C1=O)N1CCOCC1 (stereo not given)
> 10 µM: 786-0 renal | A498 renal | A549 NSCLC | ACHN renal | BT-549 breast | CAKI-1 renal | CCRF-CEM leukemia | COLO 205 colon | DU-145 prostate | EKVX NSCLC | HCC-2998 colon | HCT-116 colon | HCT-15 colon | HL-60(TB) leukemia | HOP-62 NSCLC | HOP-92 NSCLC | HS 578T breast | HT29 colon | IGROV1 ovarian | K-562 leukemia | KM12 colon | LOX IMVI melanoma | M14 melanoma | MALME-3M melanoma | MCF7 breast | MDA-MB-231 breast | MDA-MB-435 | MDA-N | MOLT-4 leukemia | NCI-H226 lung | NCI-H23 lung | NCI-H460 lung | NCI-H522 lung | NCI/ADR-RES ovarian | OVCAR-3 ovarian | OVCAR-4 ovarian | OVCAR-5 ovarian | OVCAR-8 ovarian | PC-3 prostate | RPMI-8226 leukemia | RXF 393 renal | SF-268 CNS | SF-295 CNS | SF-539 CNS | SK-MEL-2 melanoma | SK-MEL-28 melanoma | SK-MEL-5 melanoma | SK-OV-3 ovarian | SN12C renal | SNB-19 CNS | SNB-75 CNS | SW-620 colon | T-47D breast | TK-10 renal | U251 CNS | UACC-257 melanoma | UACC-62 melanoma | UO-31 renal
